# Measurements: ChEMBL document CHEMBL1145293, “Synthesis and SAR of GlyT1 inhibitors derived from a series of N-((4-(morpholine-4-carbonyl)-1-(propylsulfonyl)piperidin-4-yl)methyl)benzamides” (Bioorg Med Chem Lett, 2006)
# Columns and labels:
# Cytochrome P450 2D6 = Cytochrome P450 2D6 (Homo sapiens, UniProt P10635); experiment: Inhibition of CYP2D6; format: ADME
# [1] = Clearance in rat; format: ADME, organism-based; conditions: in vivo
# [2] = biological target: T1, Sodium- and chloride-dependent glycine transporter 1 (Homo sapiens, UniProt P48067); experiment: Inhibition of human GlyT1
# T1 sequence (P48067 whole entry): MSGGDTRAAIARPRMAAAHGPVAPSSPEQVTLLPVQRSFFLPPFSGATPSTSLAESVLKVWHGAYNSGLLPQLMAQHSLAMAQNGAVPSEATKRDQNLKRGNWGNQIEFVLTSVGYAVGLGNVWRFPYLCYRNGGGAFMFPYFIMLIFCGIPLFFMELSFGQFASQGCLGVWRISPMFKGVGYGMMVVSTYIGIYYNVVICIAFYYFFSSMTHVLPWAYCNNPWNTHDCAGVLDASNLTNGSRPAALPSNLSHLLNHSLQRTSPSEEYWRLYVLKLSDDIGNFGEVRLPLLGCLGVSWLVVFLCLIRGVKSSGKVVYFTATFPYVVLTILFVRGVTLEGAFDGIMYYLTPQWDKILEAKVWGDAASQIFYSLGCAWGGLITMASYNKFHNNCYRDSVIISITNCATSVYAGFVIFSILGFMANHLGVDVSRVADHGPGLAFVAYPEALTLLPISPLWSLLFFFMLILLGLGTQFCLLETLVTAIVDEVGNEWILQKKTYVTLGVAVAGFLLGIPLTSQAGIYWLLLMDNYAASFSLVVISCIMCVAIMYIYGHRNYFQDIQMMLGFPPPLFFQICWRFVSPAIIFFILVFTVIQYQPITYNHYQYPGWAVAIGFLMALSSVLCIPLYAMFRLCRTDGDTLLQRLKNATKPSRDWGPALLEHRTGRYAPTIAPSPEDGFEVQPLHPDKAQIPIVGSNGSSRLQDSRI
# [3] = biological target: T2, Sodium- and chloride-dependent glycine transporter 1 (Rattus norvegicus, UniProt P28572); experiment: Inhibition of rat GlyT1
# T2 sequence (P28572 whole entry): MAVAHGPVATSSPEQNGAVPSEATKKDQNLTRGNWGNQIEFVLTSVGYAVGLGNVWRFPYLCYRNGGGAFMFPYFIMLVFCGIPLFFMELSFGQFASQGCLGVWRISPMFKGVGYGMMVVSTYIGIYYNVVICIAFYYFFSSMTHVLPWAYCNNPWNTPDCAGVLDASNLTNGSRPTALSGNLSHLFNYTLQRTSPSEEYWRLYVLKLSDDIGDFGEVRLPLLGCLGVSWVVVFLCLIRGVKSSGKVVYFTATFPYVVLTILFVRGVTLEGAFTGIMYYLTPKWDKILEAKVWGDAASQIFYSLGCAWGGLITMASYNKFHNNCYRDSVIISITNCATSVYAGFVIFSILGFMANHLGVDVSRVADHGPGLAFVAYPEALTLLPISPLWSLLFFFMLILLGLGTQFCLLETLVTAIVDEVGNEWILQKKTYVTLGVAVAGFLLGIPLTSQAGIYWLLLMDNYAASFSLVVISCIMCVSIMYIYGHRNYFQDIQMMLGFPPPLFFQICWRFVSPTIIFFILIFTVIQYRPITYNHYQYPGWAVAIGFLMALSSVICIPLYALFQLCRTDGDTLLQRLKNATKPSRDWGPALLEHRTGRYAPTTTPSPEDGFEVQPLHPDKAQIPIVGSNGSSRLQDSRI
# [4] = Partition coefficient, log P of the compound; format: physicochemical; conditions: octanol/water
# [5] = Half life in rat; format: ADME, organism-based; conditions: in vivo
# [6] = Apparent permeability in Caco-2 cells; format: ADME, cell-based; conditions: human
# Caco-2 [7] = experiment: Ratio of permeability from basolateral to apical over apical to basolateral side of Caco-2 cell expressing mouse p-glycoprotein; format: ADME, cell-based; conditions: human
# Caco-2 [8] = experiment: Ratio of permeability from basolateral to apical over apical to basolateral side of Caco-2 cell expressing human p-glycoprotein; format: ADME, cell-based
# [9] = biological target: T3, Sodium- and chloride-dependent glycine transporter 2 (Homo sapiens, UniProt Q9Y345); experiment: Inhibition of human GlyT2
# T3 sequence (Q9Y345 whole entry): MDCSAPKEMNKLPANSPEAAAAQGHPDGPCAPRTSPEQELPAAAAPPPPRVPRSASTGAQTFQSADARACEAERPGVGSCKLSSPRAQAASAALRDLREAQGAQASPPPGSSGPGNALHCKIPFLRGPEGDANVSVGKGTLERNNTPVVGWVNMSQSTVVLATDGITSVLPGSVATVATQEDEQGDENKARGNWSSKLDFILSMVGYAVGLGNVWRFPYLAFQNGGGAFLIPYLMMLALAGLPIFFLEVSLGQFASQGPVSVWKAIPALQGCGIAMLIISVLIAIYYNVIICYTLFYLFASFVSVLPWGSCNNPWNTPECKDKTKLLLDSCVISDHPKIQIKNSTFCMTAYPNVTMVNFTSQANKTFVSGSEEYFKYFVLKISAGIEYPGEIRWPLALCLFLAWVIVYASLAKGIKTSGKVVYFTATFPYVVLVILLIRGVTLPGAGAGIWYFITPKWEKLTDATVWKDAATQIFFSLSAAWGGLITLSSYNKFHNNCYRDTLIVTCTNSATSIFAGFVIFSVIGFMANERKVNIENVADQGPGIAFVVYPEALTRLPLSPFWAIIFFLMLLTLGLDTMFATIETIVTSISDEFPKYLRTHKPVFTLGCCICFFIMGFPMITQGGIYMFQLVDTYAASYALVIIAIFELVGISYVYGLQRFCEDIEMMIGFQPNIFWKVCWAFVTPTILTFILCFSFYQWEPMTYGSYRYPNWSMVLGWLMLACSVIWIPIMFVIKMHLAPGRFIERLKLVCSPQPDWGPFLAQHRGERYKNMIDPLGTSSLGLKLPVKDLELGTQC
# [10] = biological target: T4, Sodium- and chloride-dependent taurine transporter (Homo sapiens, UniProt P31641); experiment: Inhibition of human TauT
# T4 sequence (P31641 whole entry): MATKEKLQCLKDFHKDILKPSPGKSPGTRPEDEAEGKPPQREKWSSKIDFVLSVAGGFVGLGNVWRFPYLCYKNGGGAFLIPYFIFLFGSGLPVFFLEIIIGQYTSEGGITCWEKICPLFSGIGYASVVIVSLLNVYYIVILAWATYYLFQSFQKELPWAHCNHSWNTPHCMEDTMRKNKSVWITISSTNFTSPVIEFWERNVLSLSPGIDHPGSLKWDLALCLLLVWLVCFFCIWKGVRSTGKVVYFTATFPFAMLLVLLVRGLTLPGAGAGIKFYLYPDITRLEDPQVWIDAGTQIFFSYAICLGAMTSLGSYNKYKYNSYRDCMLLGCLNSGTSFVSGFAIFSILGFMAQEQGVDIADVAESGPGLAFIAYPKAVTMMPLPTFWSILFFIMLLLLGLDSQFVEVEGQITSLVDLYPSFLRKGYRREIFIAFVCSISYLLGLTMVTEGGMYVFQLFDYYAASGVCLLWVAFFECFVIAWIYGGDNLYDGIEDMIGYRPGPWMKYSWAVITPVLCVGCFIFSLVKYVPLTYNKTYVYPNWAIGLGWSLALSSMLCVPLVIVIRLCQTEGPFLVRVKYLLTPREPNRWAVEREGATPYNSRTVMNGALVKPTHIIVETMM
# Sequence of Cytochrome P450 2D6 (P10635 whole entry): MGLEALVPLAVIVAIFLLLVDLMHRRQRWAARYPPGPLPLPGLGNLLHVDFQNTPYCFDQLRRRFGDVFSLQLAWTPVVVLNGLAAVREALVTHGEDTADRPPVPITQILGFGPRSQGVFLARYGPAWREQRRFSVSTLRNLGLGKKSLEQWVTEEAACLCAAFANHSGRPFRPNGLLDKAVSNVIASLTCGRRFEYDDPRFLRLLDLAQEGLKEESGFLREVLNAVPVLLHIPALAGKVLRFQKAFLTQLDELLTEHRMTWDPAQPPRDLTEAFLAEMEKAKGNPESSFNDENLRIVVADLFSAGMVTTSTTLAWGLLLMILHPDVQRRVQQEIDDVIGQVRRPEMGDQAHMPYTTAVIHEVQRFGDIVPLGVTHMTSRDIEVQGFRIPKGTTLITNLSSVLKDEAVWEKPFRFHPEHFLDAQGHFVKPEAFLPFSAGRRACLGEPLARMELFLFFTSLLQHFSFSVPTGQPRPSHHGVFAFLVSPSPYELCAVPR
SMILES,Activity (Cytochrome P450 2D6),clearance [1],IC50 [2],IC50 [3],logP [4],half-life [5],Papp [6],Ratio (Caco-2 [7]),Ratio (Caco-2 [8]),IC50 [9],IC50 [10]
CCCS(=O)(=O)N1CCC(CNC(=O)c2ccccc2Cl)(C(=O)N2CCOCC2)CC1,Not Active,18 mL/min/kg,9.7 nM,18.3 nM,< 1.4,18 min,> 22 ×10⁻⁶ cm/s,8.9,10.6,> 30000 nM,> 30000 nM
CCCS(=O)(=O)N1CCC(CNC(=O)c2c(F)ccc(Cl)c2F)(C(=O)N2CCOCC2)CC1,Not Active,18 mL/min/kg,8.4 nM,19.7 nM,< 1.4,18 min,> 22 ×10⁻⁶ cm/s,8.9,10.6,> 30000 nM,> 30000 nM
CCCS(=O)(=O)N1CCC(CNC(=O)c2cc(F)c(Cl)cc2Cl)(C(=O)N2CCOCC2)CC1,Not Active,18 mL/min/kg,6.3 nM,7.4 nM,< 1.4,18 min,> 22 ×10⁻⁶ cm/s,8.9,10.6,> 30000 nM,> 30000 nM

# Now from value to compound:
Activity (Cytochrome P450 2D6),clearance [1],IC50 [2],IC50 [3],logP [4],half-life [5],Papp [6],Ratio (Caco-2 [7]),Ratio (Caco-2 [8]),IC50 [9],IC50 [10],SMILES
Not Active,18 mL/min/kg,12.6 nM,10.1 nM,< 1.4,18 min,> 22 ×10⁻⁶ cm/s,8.9,10.6,> 30000 nM,> 30000 nM,CCCS(=O)(=O)N1CCC(CNC(=O)c2ccc(F)cc2Cl)(C(=O)N2CCOCC2)CC1
Not Active,18 mL/min/kg,12.5 nM,22.1 nM,< 1.4,18 min,> 22 ×10⁻⁶ cm/s,8.9,10.6,> 30000 nM,> 30000 nM,CCCS(=O)(=O)N1CCC(CNC(=O)c2c(F)cccc2Cl)(C(=O)N2CCOCC2)CC1
Not Active,20.5 mL/min/kg,2.4 nM,3.2 nM,1.4,22.2 min,23.6 ×10⁻⁶ cm/s,11.4,17.9,> 30000 nM,> 30000 nM,CCCS(=O)(=O)N1CCC(CNC(=O)c2ccc(Cl)cc2Cl)(C(=O)N2CCOCC2)CC1
